Reference: patent publication US9733236B2, “Methods for determining the effect of an agent on tissue stem cells” (priority 2014, dated 2017)
Entries after “also recorded” stand apart in the source; their conditions may differ. Counter-ions that a name gives are not always drawn.

Key:
[1] = tested on: tissue stem cells, transient cells; settings: cell kinetics type the agent acts on; positive control agents; cited from earlier work
[2] = clinical effects of the known drug; cited from earlier work
[3] = tested on: tissue stem cells; settings: in vitro; known in the art; cited from earlier work
[4] = tested on: human liver stem cell-enriched cultures; test: Serial culture of human liver stem cell strains with xanthosine (cumulative population doublings); format: cell-based; settings: FIG. 14A
Text: Using a pre-existing dataset developed with control human mini-tissue cultures and cultures treated with the purine nucleoside xanthosine as the test agent, we have validated the ability to use basic cell culture data, described in the methods herein, to detect effects on liver tissue stem cells. […] We used xanthosine as the agent to expand human liver stem cell strains and to produce human liver mini-tissues. […] Thus, culture systems of cells comprising heterogeneous cell population of stem, transient, and differentiated cells can be used to evaluate the activity of a test agent against tissue stem cells by using the methods described herein.
As an initial test of this ability, we used existing data sets from serial culture of our human liver stem cell strains.^14,15 Because these analyses were not ideally developed for the PSCK computer simulation format, they represented a more challenging validation.
The validation agent used was xanthosine, a purine nucleoside that we have shown independently to induce tissue stem cells to switch from asymmetric self-renewal divisions to symmetric divisions that lead to self-replication.

SMILES	Cell-type Specificity [1]	Clinical Effects [2]	other results
CS(=O)(=O)c1ccc(C2=C(c3ccccc3)C(=O)OC2)cc1 [refecoxib]	SC and TC	Vioxx ®; idiosyncratic life-threatening toxicity	
CC(=O)[C@]1(O)Cc2c(O)c3c(c(O)c2[C@@H](O[C@H]2C[C@H](N)[C@H](O)[C@H](C)O2)C1)C(=O)c1ccccc1C3=O [idarubicin]		Targets hematopoietic progenitors	
O=P1(N(CCCl)CCCl)NCCCO1 (stereo not drawn) [cyclophosphamide]	SC and TC	Cytoxan ®; extremely myelosuppressive	
Cn1cncc1[C@@](N)(c1ccc(Cl)cc1)c1ccc2c(c1)c(-c1cccc(Cl)c1)cc(=O)n2C [tipifarnib]		Highly toxic with myelosuppression	
Cc1ccc(C(=O)Nc2ccc(CN3CCN(C)CC3)c(C(F)(F)F)c2)cc1C#Cc1cnc2cccnn12 [ponatinib]		Inclusig ®; myelosuppressive	
O=c1[nH]c(=O)c2ncn([C@@H]3O[C@H](CO)[C@@H](O)[C@H]3O)c2[nH]1 [xanthosine]	SC^a		tissue stem cell self-replication [3]: increases self-replication by adult tissue stem cells; also recorded: (In vitro, increases tissue SC self-replication)^1-5; proliferative rate and extent of human liver stem cell serial cultures ([4]; experimental data): increase the proliferative rate and extent; population doublings reached in serial culture ([4]; xanthosine-supplemented culture, control arrests after less than 30 population doublings): greater than 80 population doublings
Cc1ccc(NC(=O)c2ccc(CN3CCN(C)CC3)cc2)cc1Nc1nccc(-c2cccnc2)n1 [imatinib mesylate]	TC^b		
